According to US11633383B2, “Dosage principle for drugs useful for treating neoplastic diseases” (Basilea Pharmaceutica International AG, priority 2017, dated 2023):

Experiments:
[1] = Plasma concentrations of BAL27862 (Cmax, AUC) in patients, 2-hour intravenous infusion study; type: in vivo, human; conditions: mean
Description: (§1) In one clinical trial BAL101553 (dihydrochloride salt) was given as a 2-hour infusion on days 1, 8, and 15 of each 28-day cycle (comparative Example).
(§2) BAL101553 (dihydrochloride salt) for intravenous administration is prepared by reconstitution of lyophilized BAL101553 (dihydrochloride salt) with saline solution or Ringer lactate solution, prior to further dilution with Ringer lactate for intravenous infusion to the patient. The 48-hour infusion is administered via an elastomeric pump (Baxter) using an infusion volume of 120 ml or 240 ml.
2-hour intravenous infusion study: on day 1 of cycle 1 blood samples were collected at pre-dose and where clinically feasible 0.5, 1, 2, 3, 4, 6, 8 and 24 hours after dosing.
(§3) Venous blood samples were collected into chilled 2 ml plastic tubes containing K2-EDTA as an anticoagulant mixed with 20 μl 2M citric acid and kept on ice for 15 minutes. Approximately 1.0 ml plasma was prepared by centrifugation at 1′500×g for 10-15 minutes at 4° C., transferred into new vials and stored at −80° C. until analysis. Plasma concentrations of BAL27862 were determined with a fully validated LC-MS/MS method:
(§4) 50 μl of acetonitrile was added to 25 μl plasma containing stable labelled internal standards (IS). After vortexing, the samples were centrifuged for 10 minutes at 50′000×g at 8° C. and 50 μl of the supernatant was transferred to an empty auto-sampler vial. The extract was separated by liquid chromatography, performed using water (0.1% formic acid) as mobile phase A and acetonitrile (0.1% formic acid) as mobile phase B. The column used was a YMC Hydroshere C18, 2.1×33 mm, 3 μm (YMC Co, Kyoto, Japan). The injection volume was set to 2 μL (full loop).
(§5) Detection was carried out using a triple-stage quadrupole MS/MS (TSQ Vantage, Thermo Fisher
(§6) Scientific, San Jose, Calif., USA) in the selected reaction monitoring mode.
(§7) The following calibration range was applied:
(§8) 1 to 1000 ng/ml for BAL27862 in human plasma ([…], citric acid)
(§9) Calculation of Pharmacokinetic Parameters (exposure [Area Under the Curve—AUC] and peak [Cmax] drug levels) for Human Samples:
(§10) AUC and Cmax of BAL27862 were calculated by non-compartmental analysis (NCA) using Phoenix WinNonLin 7.0 software from Certara.

[2] = Plasma concentrations of BAL27862 (Cmax, AUC) in patients, 48-hour intravenous infusion study; type: in vivo, human; conditions: for AUClast / Cmax: BAL27862 in plasma; for AUC: plasma, BAL27862, compared as weekly exposure
Description: (§11) In another clinical trial BAL101553 (dihydrochloride salt) was given as a 48-hour infusion on days 1, 8 and 15 of each 28 day cycle.
as §2
48-hour intravenous infusion study: on day 1 of cycle 1 blood samples were collected at pre-dose and where clinically feasible 0.5, 1, 2, 4, 8, 24, 30, 48, 52, 54, 72, and 168 hours after dosing.
as §3, §4, §5, §6, §7, §8, §9, §10

[3] = Plasma concentrations of BAL27862 (Cmax, AUC) in patients, daily oral administration study; type: in vivo; conditions: human, BAL101553 dihydrochloride daily oral, N=7; for AUC: plasma, BAL27862, compared as weekly exposure; for Cmax: BAL27862 in plasma
Description: (§12) In another clinical trial BAL101553 (dihydrochloride salt) was given as a daily oral administration in treatment cycles consisting of 28 days of continuous, daily administration to patients in a fasted state (comparative Example).
(§13) BAL101553 (dihydrochloride salt) for oral administration is prepared as a HPMC capsules containing 1 mg active ingredient, 98 mg of mannitol and 1 mg magnesium stearate, or 5 mg active ingredient, 94 mg mannitol and 1 mg magnesium stearate.
Daily oral administration study: on day 1 of cycle 1 blood samples were collected at pre-dose and where clinically feasible 0.5, 1, 2, 3, 4, 6, 8 and 24 hours after intake of study medication.
as §3, §4, §5, §6, §7, §8, §9, §10

[4] = test system: tumour; assay: Clinical trials of BAL101553: tumour response; type: in vivo, human
From the text: as §11, §12

[5] = cited from earlier work
[6] = Blood pressure measurements in patients treated with BAL101553; type: in vivo, human; conditions: cycle 1 day 1
Description: On day 1 of cycle 1 of the 2-hour and 48-hour intravenous infusion studies systolic and diastolic blood pressures were measured using a calibrated, automated blood pressure device at various time points, i.e. prior to the first administration of study drug and then at least hourly for the first 4 hours after start of dosing.

[7] = Clinical trials of BAL101553: maximum tolerated dose and adverse drug reactions; type: in vivo, human
From the text: as §1, §11, §12, §2, §13

[8] = cited from earlier work; remark: listed apart in the source
[9] = BAL101553 dihydrochloride 45 mg/m^2, 2 hours infusion, N=8, cycle 1 day 1
[10] = BAL101553 dihydrochloride 60 mg/m^2, 2 hours infusion, N=21, cycle 1 day 1
[11] = BAL101553 dihydrochloride 45 mg/m^2, 48 hours infusion, mean, N=3, cycle 1 day 1
[12] = BAL101553 dihydrochloride 70 mg/m^2, 48 hours infusion, mean, N=4, cycle 1 day 1
[13] = BAL101553 dihydrochloride 90 mg/m^2, 48 hours infusion, mean, N=4, cycle 1 day 1
[14] = 2-hour infusion on study days 1, 8 and 15, q28 days, 2016 ASCO poster

## N#CCCNc1nonc1-c1nc2ccccc2n1CC(=O)c1ccc(N)cc1 [BAL27862, 3-(4-{1-[2-(4-Amino-phenyl)-2-oxo-ethyl]-1H-benzoimidazol-2-yl}-furazan-3-ylamino)-propionitrile]
[1]; [9]
  AUClast: 4340 h*ng/m
  Cmax: 356 ng/m
[1]; [10]
  AUClast: 6040 h*ng/m
  Cmax: 498 ng/m
[2]; 48-hour dose regimen versus daily oral regimen
  variability of pharmacokinetic exposure (AUC): lower variability
[2]; [11]
  AUClast: 3830 h*ng/m
  Cmax: 77.7 ng/m
[2]; [12]
  AUClast: 9030 h*ng/m
  Cmax: 152 ng/m
[2]; [13]
  AUClast: 12000 h*ng/m
  Cmax: 238 ng/m
[2]; human, intravenous, BAL101553 dihydrochloride 48-hour infusion, 70 mg/m^2, N=9, read-out: Cmax (mean, ng/ml)
  Cmax: 148 ng/mL
[2]; human, intravenous, BAL101553 dihydrochloride 48-hour infusion, 90 mg/m^2, N=4, read-out: Cmax (mean, ng/ml)
  Cmax: 238 ng/mL
[2]; human, intravenous, BAL101553 dihydrochloride 48-hour infusion, 70 mg/m^2, N=9
  AUC: 8580 ng·h/mL
[2]; human, intravenous, BAL101553 dihydrochloride 48-hour infusion, 90 mg/m^2, N=4
  AUC: 13500 ng·h/mL
[3]; 16 mg
  AUC: 8400 ng·h/mL
  Cmax: 131 ng/mL
[3]; 20 mg
  AUC: 12200 ng·h/mL
  Cmax: 134 ng/mL

## N#CCCNc1nonc1-c1nc2ccccc2n1CC(=O)c1ccc(NC(=O)[C@@H](N)CCCCN)cc1 [BAL101553, (S)-2,6-Diamino-hexanoic acid [4-(2-{2-[4-(2-cyano-ethylamino)-furazan-3-yl]-benzoimidazol-1-yl}-acetyl)-phenyl]-amide]
[4]; 48-hour infusion regimen, MTD dose (70 mg/m^2)
  tumour response: partial tumour response in a patient
[4]; daily oral dose regimen, any dose
  objective responses: no objective responses were observed
[5]; [14]
  myocardial ischemia: asymptomatic myocardial ischemia
  recommended phase 2 dose: 30 mg/m^2
[5]; 2-hour infusion, related to peak drug concentration (Cmax), 2016 ASCO poster
  vascular effects: dose-dependent vascular effects that were dose-limiting
[5]; 2-hour intravenous administration, phase I escalation study of WO2015/173341
  MTD: 60 mg/m^2
[6]; infused over 48 hours, 45 or 70 mg/m^2
  change from baseline in systolic and diastolic blood pressure: neutral blood pressure profile or a minor average change from baseline
[6]; infusion duration of 2 hours, 45 or 60 mg/m^2
  change from baseline in systolic and diastolic blood pressure: distinct changes from baseline
[7]; 45 mg/m^2 or 60 mg/m^2, 2-hour infusion
  troponin elevation indicative of myocardial damage: Three patients
[7]; 45 mg/m^2 or 70 mg/m^2, 48-hour infusion
  troponin elevation indicative of myocardial damage: not observed
[7]; 90 mg/m^2 (supra-MTD), 48-hour infusion regimen
  Grade 4 hyponatremia: no observation of Grade 4 hyponatremia
[7]; 48-hour infusion on days 1, 8 and 15 of each 28 day cycle
  maximum tolerated dose (MTD): 70 mg/m^2
[7]; 48-hour infusion, 70 mg/m^2, N=9
  Serious Grade 4 adverse drug reactions: None
[7]; 48-hour infusion, 90 mg/m^2, N=4
  Serious Grade 4 adverse drug reactions: None
[7]; daily oral administration, 28-day cycles, fasted state
  maximum tolerated dose (MTD): 16 mg/day
[7]; daily oral dose of 20 mg/day (supra-MTD)
  serious Grade 4 hyponatremia: 2 patients
[7]; daily oral, 16 mg, N=7
  Serious Grade 4 adverse drug reactions: None
[7]; daily oral, 20 mg, N=7
  Serious Grade 4 adverse drug reactions: 2 patients with
[8]
  water solubility: highly water-soluble
